Data from patent US20240208972A1, “LRRK2 INHIBITORS AND USES THEREOF” (NEURON23, INC., priority 2022, published 2024).

Assays:
[1] = Brain penetration (Kp,uu) in CD-1 mice, with plasma and brain tissue binding by equilibrium dialysis; type: in vivo; conditions: mouse, brain and plasma (unbound), male CD-1 mice, single IV bolus 1 mg/kg
Protocol: The compounds disclosed herein were tested on CD-1 mice for brain penetration (Kp, uu) according to the following procedures.
Nine male CD-1 mice were administered TEST COMPOUND by single intravenous bolus administration at 1 mg/kg. The vehicle used for IV study was 5% DMSO, 5% solutol, 20% PEG300 and 70% water. The detailed dosing and sampling regimens are described in the following tables.
1.0 mg of test compound was accurately weighed into a glass vial, and slowly added with 104 μL of DMSO and vortexed for 1 min. Then 104 μL of solutol was added and vortexed for 1 min. Then 415 μL of PEG300 was added and vortexed for 1 min. Then 1000 μL of water was added and vortexed for 1 min. Finally, 451 μL of water was added and vortexed for 1 min to get a clear solution.
The body weights were in the range from 28.81 to 31.25 g for males on the first dosing day. All animals received a single intravenous bolus administration of TEST COMPOUND from the tail vein.
Each blood collection (about 0.06 mL per time point) was performed from saphenous vein of each animal into pre-chilled commercial K2-EDTA tubes as anti-coagulant and placed on wet ice until centrifugation.
Plasma samples were then prepared by centrifuging the blood samples at approximately 4° C., 3200×g for 10 minutes. All plasma samples were then quickly frozen over dry ice and kept at −60° C. or lower until LC-MS/MS analysis.
Brain tissue was homogenized using homogenizing buffer (15 mM PBS (pH7.4): MeOH=2:1) at the ratio of 1:9 (1 g tissue with 9 mL buffer, the dilution ratio is 10). The tissue homogenate was kept at −60° C. or lower until LC-MS/MS analysis.
The concentrations of TEST COMPOUND in plasma and brain were determined by using an LC-MS/MS method.
The plasma and brain concentration of TEST COMPOUND in study animals was subjected to a non-compartmental pharmacokinetic analysis by using the Phoenix WinNonlin software program (version 6.3 or above, Pharsight). The linear/log trapezoidal rule was applied in obtaining the PK parameters.
Individual plasma and brain concentration values that were below the lower limit of quantitation (LLOQ) were excluded from the PK parameter calculation. The nominal dose levels and nominal sampling times were used in the calculation of all pharmacokinetic parameters.
Mouse Kp, uu=(% free in mouse brain*concentration in mouse brain)/(% free in mouse plasma*concentration in mouse plasma)
The dialysis apparatus was assembled according to the manufacturer's instruction. Each Cell was filled with 120 μL of spiked plasma sample and dialyzed against equal volume of dialysis buffer (PBS). The assay was performed in duplicate. The dialysis plates were sealed and incubated in an incubator at 37° C. with 5% CO2 and rotated at 100 rpm for 6 hours. At the end of incubation, the seals were removed and 50 μL of samples from both buffer and plasma chambers were transferred to a 96-well plate.
All calculations were carried out using Microsoft Excel. The concentrations of test compound and control compound in the buffer and plasma chambers were determined from peak area ratios (PAR) of analyte to internal standard. Protein binding (% unbound and % bound) and recovery (% recovery) of test and control compounds was calculated as follows:
• 1. Thawing of the frozen brain (stored at −80° C.) • Frozen brain tissue was thawed at room temperature in a bath. Only brain tissue was used that was thawed no more than once. • 2. Preparation of brain tissue homogenate • Brain tissue homogenate was prepared by diluting one quantity (g) of the whole brain tissue with three volumes (mL) of buffer (PBS, pH 7.4) and homogenizing the mixture using a tissue homogenizer. Brain tissue homogenate was frozen at −80° C. for later use/comparison. • 3. Preparation of working solutions • The working solutions of test compound and the control compound propranolol were prepared in dimethyl sulfoxide (DMSO) at the concentration of 200 μM. […]

[2] = molecular target: T1, wt human LRRK2, catalytic site (Homo sapiens, UniProt Q5S007); assay: TR-FRET LanthaScreen Tb Kinase Activity Assay, LRRK2 kinase inhibition; type: biochemical; conditions: 2 nM wt human LRRK2, 400 nM peptide, 38 μM ATP
T1 construct: wt human LRRK2, catalytic site, catalytic site (ThermoFisher/USA); purchased ThermoFisher
Summary of the method: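 TR-FRET LanthaScreen format: 2 nM wt human LRRK2 catalytic domain with 400 nM fluorescein-ERM (LRRKtide) and 38 μM ATP in Kinase Buffer A, after 15 min compound preincubation. Reaction 120 min at RT, then EDTA plus Tb-anti-pLRRKtide antibody for 60 min; emission ratios analysed per kit protocol.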

T1 sequence (Q5S007 1879-2138 limits assumed): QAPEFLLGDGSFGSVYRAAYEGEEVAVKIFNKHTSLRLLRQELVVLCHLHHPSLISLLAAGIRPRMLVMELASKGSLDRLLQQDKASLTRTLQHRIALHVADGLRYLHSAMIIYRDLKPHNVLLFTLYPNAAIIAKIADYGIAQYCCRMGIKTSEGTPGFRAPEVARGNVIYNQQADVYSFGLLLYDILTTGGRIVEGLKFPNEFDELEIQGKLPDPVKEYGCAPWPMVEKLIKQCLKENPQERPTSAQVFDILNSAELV

| Kp uu [1] | IC50 [2] [nM] | Structure (SMILES) |
| --- | --- | --- |
| > 0.4 | < 2 | Cc1n[nH]c2c1N=C(c1c(F)cccc1F)Nc1c(F)cc(N3CCOCC3)cc1-2 [Example 30, 4-(5-(2,6-difluorophenyl)-7-fluoro-3-methyl-1,6-dihydrobenzo[d]pyrazolo[3,4-f][1,3]diazepin-9-yl)morpholine] |
| 0.2 to 0.4 | 2 to 100 | Cc1n[nH]c2c1N=C(c1c(F)cc(F)cc1F)Nc1ccc(N3CCOCC3)cc1-2 [Example 27, 4-[3-methyl-5-(2,4,6-trifluorophenyl)-1,6-dihydropyrazolo[4,3-d][1,3]benzodiazepin-9-yl]morpholine] |
| 0.2 to 0.4 | < 2 | Cc1n[nH]c2c1N=C(c1c(F)cccc1F)Nc1cnc(-c3cnn(C(F)F)c3)cc1-2 [Example 1, 9-(1-(difluoromethyl)-1H-pyrazol-4-yl)-5-(2,6-difluorophenyl)-3-methyl-1,6-dihydropyrazolo[4,3-d]pyrido[4,3-f][1,3]diazepine] |

Continued, compound first:

| Structure (SMILES) | Kp uu [1] | IC50 [2] [nM] |
| --- | --- | --- |
| Cc1n[nH]c2c1N=C(c1c(F)cccc1F)Nc1c-2cc(N2CCO[C@@H](C)C2)nc1C [Example 40, (S)-4-(5-(2,6-difluorophenyl)-3,7-dimethyl-1,6-dihydropyrazolo[4,3-d]pyrido[4,3-f][1,3]diazepin-9-yl)-2-methylmorpholine] | < 0.2 | < 2 |
| Fc1cccc(F)c1C1=Nc2c(C(F)F)n[nH]c2-c2cc(N3CCOCC3)ncc2N1 [Example 10, 4-[5-(difluoromethyl)-8-(2,6-difluorophenyl)-3,4,7,9,12-pentazatricyclo[8.4.0.02,6]tetradeca-1(10),2(6),4,7,11,13-hexaen-13-yl]morpholine] | < 0.2 | < 2 |
| Cc1n[nH]c2c1N=C(c1c(F)cccc1F)Nc1cnc(N3CCO[C@@H](C(F)(F)F)C3)cc1-2 [Example 55, (2R)-4-[8-(2,6-difluorophenyl)-5-methyl-3,4,7,9,12-pentazatricyclo[8.4.0.02,6]tetradeca-1(10),2(6),4,7,11,13-hexaen-13-yl]-2-(trifluoromethyl)morpholine] | < 0.2 | < 2 |
| Cc1n[nH]c2c1N=C(c1c(F)cccc1F)Nc1c-2cc(N2CCN(CC(C)F)CC2)nc1C (racemic) [Example 20, 8-(2,6-difluorophenyl)-13-[4-(2-fluoropropyl)piperazin-1-yl]-5,11-dimethyl-3,4,7,9,12-pentazatricyclo[8.4.0.02,6]tetradeca-1(10),2(6),4,7,11,13-hexaene] | 0.2 to 0.4 | < 2 |
| Cc1n[nH]c2c1N=C(c1c(F)cccc1F)Nc1c-2cc(N2CCOCC2)nc1C [Example 8, 4-[8-(2,6-difluorophenyl)-5,11-dimethyl-3,4,7,9,12-pentazatricyclo[8.4.0.02,6]tetradeca-1(10),2(6),4,7,11,13-hexaen-13-yl]morpholine] | 0.2 to 0.4 | < 2 |
